Source: patent US20230226096A1 (Orna Therapeutics, Inc., priority 2020, published 2023)
Entries after “also recorded” stand apart in the source; their conditions may differ.

How the values were obtained:
splenic immune cells = experiment: Cre circular RNA LNPs in Cre reporter (Ai9) mice: tdTomato+ splenic immune cells; type: in vivo; settings: 0.5 mg/kg RNA intravenously, 48 hr
Description: Circular RNAs encoding Cre recombinase (Cre) are encapsulated into lipid nanoparticles as previously described. Female, 6-8 week old B6.Cg-Gt(ROSA)26Sortm9(CAG-tdTomato)Hze/J (Ai9) mice were dosed with lipid nanoparticles at 0.5 mg/kg RNA intravenously. Fluorescent tdTomato protein was transcribed and translated in Ai9 mice upon Cre recombination, meaning circular RNAs have been delivered to and translated in tdTomato+ cells. After 48 hr, mice were euthanized and the spleens were harvested, processed into a single cell suspension, and stained with various fluorophore-conjugated antibodies for immunophenotyping via flow cytometry.
Ai9 mice (B6.Cg-Gt(ROSA)26Sortm9(CAG-tdTomato)Hze/J, female, 6-8 weeks, n=3 per group) were injected i.v. with 0.5 mg/kg Cre oRNA LNPs or PBS. Ai9 mice transcribe and translate the fluorescent reporter tdTomato upon Cre recombination; meaning cells which are tdTomato+ have successfully been transfected with Cre oRNA.

[1] = In vivo analysis: FLuc oRNA LNPs, whole body and ex vivo IVIS flux in mice; parameters: species or system CD-1 or c57BL/6J mice; settings: 0.5 mg/kg RNA intravenously
Description: Female CD-1 or female c57BL/6J mice ranging from 22-25 g were dosed at 0.5 mg/kg RNA intravenously. Six hours after injection, mice were injected intraperitoneally with 200 μL of D-luciferin at 15 mg/mL concentration. 5 minutes after injection, mice were anesthetized using isoflurane, and placed inside the IVIS Spectrum In Vivo Imaging System (Perkin Elmer) with dorsal side up. Post 10 minutes injection, mice were scanned for luminescence. Mice were euthanized and organs were extracted within 25 minutes of luciferin injection to scan for luminescence in liver, spleen, kidneys, lungs, and heart. Images (FIGS. 33A-B, 34A-B, 35A-B) were analyzed using Living Images (Perkin Elmer) software. Regions of interest were drawn to obtain flux and average radiance and analyzed for biodistribution of protein expression (FIG. 32A-B).

primary human T cells = experiment: FLuc oRNA LNP transfection of primary human activated T cells with or without ApoE3; type: cell-based; settings: 200 ng RNA/well, 24-hour incubation, 4 independent donors
Description: Primary human T cells from independent donors were stimulated with aCD3/aCD28 and allowed to proliferate for 6 days in the presence of human serum and IL-2. Then, 100,000 cells were plated in a 96 well plate and LNPs containing oRNA coding for Firefly Luciferase (FLuc) were added to the cells at 200 ng RNA/well with or without Apolipoprotein E3 (ApoE3). After 24-hour incubation, luminescence was quantified using the Bright-Glo Luciferase Assay System (Promega) according to manufacturer's instructions and background luminescence from cells not treated with LNPs was subtracted. […] (See Example 70 for LNP formulation procedure, e.g., for 10a-27 (5.7A), 10a-26 (5.7A), 10a-27 (4.5D), and 10a-26 (4.5D) LNPs.)

SMILES | proportion of splenic immune cells expressing tdTomato (transfection) (splenic immune cells) | spleen to liver ratios [1] | Firefly luminescence (primary human T cells) | proportion of splenic immune cells expressing tdTomato (transfection) (splenic immune cells; 0.5 mg/kg) | proportion of splenic immune cells expressing tdTomato (transfection) (splenic immune cells; listed as Lipid 10a-27, 0.5 mg/kg)
CCCCCCCCCOC(=O)CCCCCCCN(CCO)CCCCCCCC(=O)OC(CCCCCCCC)CCCCCCCC [Lipid 15 from Table 10b] | effective at delivering circular RNAs to many splenic immune cell subsets in mice | maintaining the desired spleen to liver ratios | – | – | –
CCCCCCCCC(CCCCCC)C(=O)OCCCCCCN(CCCCCCOC(=O)C(CCCCCC)CCCCCCCC)CCCn1ccnc1C (centres unmarked) [Lipid 27 from Table 10a, ((3-(2-methyl-1H-imidazol-1-yl)propyl)azanediyl)bis(hexane-6,1-diyl) bis(2-hexyldecanoate)] | – | – | generally produced higher luminescence than those containing Lipid 26 from Table 10a (10a-26) | significantly higher myeloid and T cell transfection compared with Lipid 93-S14; also recorded: effective at delivering circular RNAs to many splenic immune cell subsets in mice | transfect significantly more splenic immune cells than those made with Lipid 10a-46
